Source: US20230404887A1, “COMPOSITIONS TO LIMIT OR ELIMINATE THE PERCEPTION OF SWEAT MALODOR” (Firmenich SA, priority 2020, published 2023)

Experiments:
[1] = Expert perfumer evaluation of malodor reduction, dynamic olfactometer, against 3M2HA; design: species or system human; settings: for EFFECTIVE CONCENTRATION: MO 3M2HA held fixed at mid-intensity (0.5), headspace concentration providing an effective level; for EXPERT RATING: MO 3M2HA held fixed at mid-intensity (0.5 on scale 0-1), rating of degree of malodor reduction at the effective concentration
Description: (§1) The effectiveness of perfuming materials in compositions to reduce the perception of, for example, axillary sweat malodors, was evaluated by an expert perfumer by 1) selecting target axillary malodor components, 2) delivering target malodor components and candidate malodor reducing materials to the nose of an expert perfumer at carefully controlled concentrations, 3) having the expert perfumer identify the concentration at which malodor reduction was obtained, and 4) rating the degree of reduction achieved at the concentration identified in step 3.
(§2) In this method, a dynamic multi-channel olfactometer was used to precisely deliver known gas phase concentrations of the test materials, using forced evaporation, into a stream of air emanating from a smelling port. The appropriate concentration of the malodor component was established prior to its being mixed with the candidate malodor reducing substance. The concentration was set at a concentration sufficient to produce an intensity of 0.5 (mid-intensity) on a scale of 0-1. The expert perfumer then dynamically adjusted the concentration of the candidate malodor reducing substance to determine the effective concentration, while maintaining a fixed concentration of the malodor component. Once the appropriate concentration had been determined, the expert perfumer evaluated the perception of the mixtures repeatedly over a period of several minutes, taking breaks in between sniffs to avoid adaptation to the components being tested, before providing a rating.
(§3) Tests were performed in a forced-evaporation, dynamic olfactometer, with malodor component concentrations held fixed at a mid-intensity. Ratings of effectiveness were based in the following scale: −2 (significant increase in malodor), −1 (slight increase in malodor), 0 (no effect), 1 (slight malodor reduction), 2 (good malodor reduction), 3 (complete malodor reduction). The malodor (MO) component abbreviations are 3H3MHA (3-methyl-3-hydroxyhexanoic acid), 3M2HA (3-methyl-2-hexenoic acid), 3M3SH (3-methyl-3-sulphanylhexanol).

[2] = Expert perfumer evaluation of malodor reduction, dynamic olfactometer, against 3H3MHA; design: species or system human; key to EXPERT RATING: −2: significant increase in malodor; −1: slight increase in malodor; 0: no effect; 1: slight malodor reduction; 2: good malodor reduction; 3: complete malodor reduction; settings: for EFFECTIVE CONCENTRATION: MO 3H3MHA held fixed at mid-intensity (0.5), headspace concentration providing an effective level; for EXPERT RATING: MO 3H3MHA held fixed at mid-intensity (0.5 on scale 0-1), rating of degree of malodor reduction at the effective concentration
Description: The effectiveness of perfuming materials in compositions to reduce the perception of, for example, axillary sweat malodors, was evaluated by an expert perfumer by 1) selecting target axillary malodor components, 2) delivering target malodor components and candidate malodor reducing materials to the nose of an expert perfumer at carefully controlled concentrations, 3) having the expert perfumer identify the concentration at which malodor reduction was obtained, and 4) rating the degree of reduction achieved at the concentration identified in step 3. […] Two surprising results were be observed. The first is that not all tested materials yielded complete malodor reduction, often differing depending on which component they were tested against. […] Intensity and concentration were material-dependent and spanned a wide range of values on both axes. […] Thus, neither the required concentrations, nor performance ratings could be predicted a priori by one skilled in the art, yet are necessary and sufficient for designing malodor reducing compositions for use in perfuming products.
as §2, §3

[3] = Expert perfumer evaluation of malodor reduction, dynamic olfactometer, against 3M3SH; design: species or system human; settings: for EFFECTIVE CONCENTRATION: MO 3M3SH held fixed at mid-intensity (0.5), headspace concentration providing an effective level; for EXPERT RATING: MO 3M3SH held fixed at mid-intensity (0.5 on scale 0-1), rating of degree of malodor reduction at the effective concentration
Description: as §1, §2, §3

[4] = Naive panelist evaluation of malodor reduction at mid-intensity dosages, passive evaporation in jars, against 4MOA; design: species or system human; settings: MO 4MOA dosage 7.5%, test compound dosage 1.5% in DiPG on cellulose pads; jar equilibrated 4 hours at room temperature; N 26 panelists
Description: The performance of fragrancing products was evaluated by non-expert consumers under passive evaporation conditions. This was achieved by: 1) selecting target axillary malodor components, 2) delivering target malodor components and candidate malodor reducing materials (separately) to the noses of naïve panelists at a range of dosages established under passive evaporation conditions 3) having the panelists evaluate the overall intensity of each presented sample, 4) determining the average mid-intensity concentration for both the malodors and malodor reducing candidates of interest, 5) delivering samples containing a malodor component and a malodor reducing candidate of interest mixed together at the dosages determined in step 4, along with separate control samples containing either alone or neither, to the noses of panelists, 6) having panelists evaluate the malodor intensity for each presented sample, and 7) determining the degree of malodor reduction produced by the candidate malodor reducing material by comparing the malodor intensity ratings of the mixture to those of the control samples. […]

| Compound | EFFECTIVE CONCENTRATION [1] | EXPERT RATING [1] | EFFECTIVE CONCENTRATION [2] | EXPERT RATING [2] | EFFECTIVE CONCENTRATION [3] | EXPERT RATING [3] | Reduction (%) [4] |
| --- | --- | --- | --- | --- | --- | --- | --- |
| CC(=O)c1ccc2ccccc2c1 | 1.37E−02 micrograms/L AIR | 3 | 1.37E−02 micrograms/L AIR | 3 | 3.42E−02 micrograms/L AIR | 2 | – |
| 1-(3,3/5,5-dimethyl-1-cyclohexen-1-yl)-4-penten-1-one | 2.53E−03 micrograms/L AIR | 3 | 1.22E+00 micrograms/L AIR | 3 | 1.22E+00 micrograms/L AIR | 3 | – |
| CC(C)=CCCC(C)CC=O (racemic) | 1.30E−01 micrograms/L AIR | 2 | 1.30E−01 micrograms/L AIR | 3 | – | – | – |
| C/C=C/C(=O)C1C(C)=CCCC1(C)C (racemic) | 1.30E−02 micrograms/L AIR | 2 | 1.08E−02 micrograms/L AIR | 3 | – | – | – |
| Cc1ccc2c(c1)CC(C)(CO)C2 (racemic) | 4.70E−02 micrograms/L AIR | 3 | 3.13E−02 micrograms/L AIR | 3 | 7.83E−02 micrograms/L AIR | 3 | – |
| C=C1CCCC(C)(C)C1C(=O)OC (racemic) [(+−)-METHYL 2,2-DIMETHYL-6-METHYLIDENECYCLOHEXANECARBOXYLATE] | 4.00E−01 micrograms/L AIR | 3 | 8.00E−01 micrograms/L AIR | 3 | 4.00E−01 micrograms/L AIR | 2 | – |
| CCOC(=O)[C@@H]1[C@@H](C(C)C)[C@@H]2C=C[C@H]1C2 (racemic) [ETHYL 1RS,2SR,3SR,4SR-3-ISOPROPYLBICYCLO[2.2.1]HEPT-5-ENE-2-CARBOXYLATE] | 2.58E+00 micrograms/L AIR | 2 | 1.03E+00 micrograms/L AIR | 3 | 2.07E+01 micrograms/L AIR | 3 | – |
| CCCCC[C@H]1C(=O)CC[C@@H]1CC(=O)OC (racemic) [METHYL 2-((1RS,2RS)-3-OXO-2-PENTYLCYCLOPENTYL)ACETATE] | 7.17E−01 micrograms/L AIR | 2 | 5.73E−01 micrograms/L AIR | 3 | 7.17E−01 micrograms/L AIR | 2 | – |
| c1ccc(CCCc2ccccn2)cc1 [2-(3-PHENYLPROPYL)PYRIDINE] | 1.43E−04 micrograms/L AIR | 3 | 1.43E−04 micrograms/L AIR | 3 | – | – | – |
| CC/C=C\CC/C=C/C=O [(2E,6Z)-2,6-NONADIENAL] | 2.83E−03 micrograms/L AIR | 3 | 1.13E−03 micrograms/L AIR | 3 | 5.67E−04 micrograms/L AIR | 3 | – |
| C[C@@H]1C/C=C\CCCCCCCCCC(=O)C1 [(+)-(3R,5Z)-3-METHYL-5-CYCLOPENTADECEN-1-ONE] | 1.65E−01 micrograms/L AIR | 2 | 5.50E−01 micrograms/L AIR | 2 | 2.75E−01 micrograms/L AIR | 2 | – |
| C/C=C/c1ccc(OCC)c(O)c1 [(E)-2-ETHOXY-5-(1-PROPENYL)PHENOL] | 1.80E−02 micrograms/L AIR | 3 | 4.50E−03 micrograms/L AIR | 3 | 4.50E−02 micrograms/L AIR | 3 | – |
| CCOC(=O)/C=C/c1ccccc1 [ETHYL (E)-3-PHENYL-2-PROPENOATE] | 7.33E−02 micrograms/L AIR | 2 | – | – | 3.67E−02 micrograms/L AIR | 2 | – |
| COC(=O)c1c(C)cc(O)c(C)c1O [METHYL 2,4-DIHYDROXY-3,6-DIMETHYLBENZOATE] | 3.50E−03 micrograms/L AIR | 3 | – | – | 3.50E−03 micrograms/L AIR | 3 | – |
| CCCCCC#CC(=O)OC [METHYL 2-OCTYNOATE] | 4.67E−01 micrograms/L AIR | 3 | – | – | 4.67E−01 micrograms/L AIR | 3 | – |
| COC(=O)/C=C/c1ccccc1 [METHYL (E)-3-PHENYL-2-PROPENOATE] | 7.00E−02 micrograms/L AIR | 3 | – | – | 9.33E−02 micrograms/L AIR | 2 | – |
| CCCCCCCC=O [OCTANAL] | 6.17E−01 micrograms/L AIR | 3 | – | – | 3.08E−01 micrograms/L AIR | 2 | – |
| Cc1ccc(C(C)C)c(O)c1 [THYMOL] | 5.17E−02 micrograms/L AIR | 3 | – | – | 1.03E−01 micrograms/L AIR | 3 | – |
| CCCCCCCCCCC=O [UNDECANAL] | 5.42E−02 micrograms/L AIR | 3 | – | – | 2.17E−01 micrograms/L AIR | 3 | – |
| CCOC(=O)C12CCCC1C1CCC2C1 (centres unmarked) [ethyl tricyclo[5.2.1.0.(2,6)]decane-2-carboxylate] | 1.07E−01 micrograms/L AIR | 3 | – | – | – | – | 43% |
| (+−)-(3E)-4-(2,6,6-trimethyl-1/2-cyclohexen-1-yl)-3-buten-2-one | 4.00E−01 micrograms/L AIR | 3 | 2.00E−01 micrograms/L AIR | 3 | 8.00E−01 micrograms/L AIR | 2 | – |
| TRICYCLO[5.2.1.0(2,6)]DEC-3/4-EN-8-YL PROPANOATE | 7.08E−02 micrograms/L AIR | 3 | – | – | 1.42E−01 micrograms/L AIR | 2 | – |
